In ChEMBL document CHEMBL4385639, “1,2,3-Triazole-containing hybrids as leads in medicinal chemistry: A recent overview” (Bioorg Med Chem, 2019):
In brackets after ≈: the same amount, converted by molar mass.

Key:
[1] = target: Dihydroorotate dehydrogenase (quinone), mitochondrial (Homo sapiens, UniProt Q02127); test: Inhibition of human recombinant N-terminal His-tagged DHODH (31 to 395 residues) expressed in Escherichia coli using dihydroorotate substrate preincubated for 5 mins followed by substrate addition by DCIP assay
Dihydroorotate dehydrogenase (quinone), mitochondrial, sequence (Q02127 whole entry, the tested form may be a part): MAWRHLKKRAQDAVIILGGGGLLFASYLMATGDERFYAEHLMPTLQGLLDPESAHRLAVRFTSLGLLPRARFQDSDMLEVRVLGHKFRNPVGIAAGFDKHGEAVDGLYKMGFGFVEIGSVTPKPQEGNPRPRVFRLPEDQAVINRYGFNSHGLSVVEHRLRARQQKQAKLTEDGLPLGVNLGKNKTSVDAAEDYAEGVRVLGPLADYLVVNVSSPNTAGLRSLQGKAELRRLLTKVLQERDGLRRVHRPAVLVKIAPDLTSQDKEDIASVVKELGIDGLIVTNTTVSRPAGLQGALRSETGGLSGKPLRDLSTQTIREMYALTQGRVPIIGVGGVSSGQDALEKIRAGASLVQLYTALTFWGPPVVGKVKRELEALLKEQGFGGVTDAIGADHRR

[2] = system: Mycobacterium tuberculosis; test: Antitubercular activity against Mycobacterium tuberculosis H37Rv after 7 days by MABA; assay type: functional; details: 168 h
[3] = Antioxidant activity assessed as inhibition of DPPH radical generation; assay type: functional
[4] = target: Tyrosinase (Homo sapiens) (UniProt P14679); test: Inhibition of tyrosinase (unknown origin) using L-DOPA as substrate preincubated with substrate for 2 mins followed by enzyme addition and measured after 10 min by spectrophotometric method relative to control
Tyrosinase (Homo sapiens), sequence (P14679 whole entry): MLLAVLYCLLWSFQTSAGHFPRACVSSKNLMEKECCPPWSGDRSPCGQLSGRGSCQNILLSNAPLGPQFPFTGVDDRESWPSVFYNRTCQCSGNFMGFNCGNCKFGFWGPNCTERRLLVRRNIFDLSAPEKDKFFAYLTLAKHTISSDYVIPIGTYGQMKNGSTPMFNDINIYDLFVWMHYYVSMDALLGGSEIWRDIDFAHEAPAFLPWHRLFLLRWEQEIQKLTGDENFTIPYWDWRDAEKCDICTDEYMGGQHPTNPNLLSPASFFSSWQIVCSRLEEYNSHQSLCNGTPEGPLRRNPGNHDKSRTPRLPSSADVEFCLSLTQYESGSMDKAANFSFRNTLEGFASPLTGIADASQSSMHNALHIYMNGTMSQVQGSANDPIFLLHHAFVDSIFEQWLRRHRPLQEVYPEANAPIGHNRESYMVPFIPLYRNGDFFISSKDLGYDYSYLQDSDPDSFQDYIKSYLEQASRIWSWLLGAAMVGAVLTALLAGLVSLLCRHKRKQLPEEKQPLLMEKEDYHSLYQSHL

[5] = target: Cholinesterase (Homo sapiens, UniProt P06276); test: Inhibition of BChE (unknown origin) using butyrylthiocholine iodide as substrate preincubated for 15 mins followed by substrate addition and measured after 15 mins
Cholinesterase (Homo sapiens, UniProt P06276), sequence (P06276 whole entry): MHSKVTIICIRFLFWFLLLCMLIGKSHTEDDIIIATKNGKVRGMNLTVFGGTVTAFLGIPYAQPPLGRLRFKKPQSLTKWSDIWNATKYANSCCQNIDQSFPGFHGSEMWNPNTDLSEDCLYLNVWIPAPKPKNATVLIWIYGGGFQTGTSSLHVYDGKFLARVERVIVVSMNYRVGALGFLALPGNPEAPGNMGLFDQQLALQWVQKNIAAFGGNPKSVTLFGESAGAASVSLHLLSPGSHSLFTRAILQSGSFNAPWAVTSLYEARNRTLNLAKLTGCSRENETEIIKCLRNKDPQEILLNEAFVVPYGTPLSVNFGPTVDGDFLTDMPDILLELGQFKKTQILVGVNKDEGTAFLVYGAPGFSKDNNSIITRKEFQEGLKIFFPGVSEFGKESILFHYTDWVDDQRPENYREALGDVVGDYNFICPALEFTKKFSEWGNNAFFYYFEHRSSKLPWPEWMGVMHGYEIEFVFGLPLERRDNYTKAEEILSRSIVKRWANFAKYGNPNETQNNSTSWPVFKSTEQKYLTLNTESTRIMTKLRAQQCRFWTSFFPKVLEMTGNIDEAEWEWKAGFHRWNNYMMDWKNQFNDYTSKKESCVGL

[6] = target: Polyunsaturated fatty acid 5-lipoxygenase (Homo sapiens, UniProt P09917); test: Inhibition of 5-lipoxygenase (unknown origin) incubated for 10 mins
Polyunsaturated fatty acid 5-lipoxygenase, sequence (P09917 whole entry): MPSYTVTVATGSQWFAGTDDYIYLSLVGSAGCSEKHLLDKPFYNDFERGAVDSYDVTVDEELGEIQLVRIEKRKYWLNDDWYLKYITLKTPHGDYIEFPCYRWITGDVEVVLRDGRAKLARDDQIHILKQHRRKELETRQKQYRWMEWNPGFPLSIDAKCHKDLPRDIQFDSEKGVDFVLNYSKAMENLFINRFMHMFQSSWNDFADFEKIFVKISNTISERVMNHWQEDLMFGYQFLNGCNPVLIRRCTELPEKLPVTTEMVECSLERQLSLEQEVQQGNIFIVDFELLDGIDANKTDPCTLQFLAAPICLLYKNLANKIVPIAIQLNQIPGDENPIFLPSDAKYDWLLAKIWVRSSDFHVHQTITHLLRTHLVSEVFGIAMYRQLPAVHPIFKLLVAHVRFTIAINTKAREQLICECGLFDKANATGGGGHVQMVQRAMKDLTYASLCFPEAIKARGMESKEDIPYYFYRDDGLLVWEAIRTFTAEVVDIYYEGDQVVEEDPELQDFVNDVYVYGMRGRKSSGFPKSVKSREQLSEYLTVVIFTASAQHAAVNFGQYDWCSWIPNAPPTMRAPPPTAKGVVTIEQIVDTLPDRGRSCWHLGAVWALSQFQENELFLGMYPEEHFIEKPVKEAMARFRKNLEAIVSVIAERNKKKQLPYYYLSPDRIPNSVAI

[7] = Inhibition of Saccharomyces cerevisiae alpha-glucosidase using p-nitrophenyl-alpha-D-glucopyranoside as substrate preincubated for 10 mins followed by substrate addition and measured after 20 mins by spectrophotometric analysis
[8] = system: Escherichia coli; test: Antimicrobial activity against Escherichia coli […]; assay type: functional
[9] = system: DU-145; test: Cytotoxicity against human DU145 cells incubated for 48 hrs by MTT assay; assay type: functional, cell-based; details: DU-145, 48 h
[10] = target: Prostaglandin G/H synthase 2 (Homo sapiens, UniProt P35354); test: Inhibition of human COX2 using arachidonic acid as substrate pretreated for 5 mins followed by substrate addition and measured after 20 mins by colorimetric assay
Prostaglandin G/H synthase 2, sequence (P35354 whole entry): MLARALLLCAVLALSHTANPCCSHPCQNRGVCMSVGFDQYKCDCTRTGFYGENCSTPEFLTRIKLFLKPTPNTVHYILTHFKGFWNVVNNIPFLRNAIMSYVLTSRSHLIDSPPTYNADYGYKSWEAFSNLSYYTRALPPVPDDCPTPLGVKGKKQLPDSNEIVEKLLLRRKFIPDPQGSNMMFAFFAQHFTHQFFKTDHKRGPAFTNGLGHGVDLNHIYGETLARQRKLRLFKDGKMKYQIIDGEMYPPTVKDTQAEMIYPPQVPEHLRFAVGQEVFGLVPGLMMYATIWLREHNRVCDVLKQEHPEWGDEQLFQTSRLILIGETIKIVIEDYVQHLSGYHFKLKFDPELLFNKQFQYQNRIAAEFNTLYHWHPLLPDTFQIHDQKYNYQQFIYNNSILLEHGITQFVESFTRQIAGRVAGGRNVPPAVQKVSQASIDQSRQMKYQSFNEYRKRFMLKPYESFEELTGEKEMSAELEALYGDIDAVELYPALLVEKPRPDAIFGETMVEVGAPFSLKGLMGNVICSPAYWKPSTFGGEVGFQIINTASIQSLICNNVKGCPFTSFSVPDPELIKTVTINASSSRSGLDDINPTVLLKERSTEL

[11] = Inhibition of soyabean 5-lipoxygenase using arachidonic acid as substrate incubated for 5 mins by spectrophotometric method; set-up: species or system Glycine max
[12] = system: Rattus norvegicus; test: Anti-inflammatory activity against carrageenan-induced paw oedema in Wistar rat assessed as reduction in paw edema at 20 mg/kg administered 30 mins prior to carrageenan challenge measured at 3 hrs post carrageenan challenge by plethysmometric method relative to control; assay type: functional; set-up: scale not given: the % may be the effect or the level left
[13] = system: U-937; test: Antiinflammatory activity in human U937 cells assessed as inhibition of LPS-induced TNF-alpha production at 10 uM incubated for 24 hrs by ELISA relative to control; assay type: functional; details: U-937, 24 h
[14] = system: U-937; test: Antiinflammatory activity in human U937 cells assessed as inhibition of LPS-induced TNF-alpha production incubated for 24 hrs by ELISA; assay type: functional, cell-based; details: U-937, 24 h
[15] = target: Urease (Canavalia ensiformis, UniProt P07374); test: Inhibition of jack bean urease assessed as reduction in ammonia production by Berthelot colorimetric method
Urease, sequence (P07374 whole entry): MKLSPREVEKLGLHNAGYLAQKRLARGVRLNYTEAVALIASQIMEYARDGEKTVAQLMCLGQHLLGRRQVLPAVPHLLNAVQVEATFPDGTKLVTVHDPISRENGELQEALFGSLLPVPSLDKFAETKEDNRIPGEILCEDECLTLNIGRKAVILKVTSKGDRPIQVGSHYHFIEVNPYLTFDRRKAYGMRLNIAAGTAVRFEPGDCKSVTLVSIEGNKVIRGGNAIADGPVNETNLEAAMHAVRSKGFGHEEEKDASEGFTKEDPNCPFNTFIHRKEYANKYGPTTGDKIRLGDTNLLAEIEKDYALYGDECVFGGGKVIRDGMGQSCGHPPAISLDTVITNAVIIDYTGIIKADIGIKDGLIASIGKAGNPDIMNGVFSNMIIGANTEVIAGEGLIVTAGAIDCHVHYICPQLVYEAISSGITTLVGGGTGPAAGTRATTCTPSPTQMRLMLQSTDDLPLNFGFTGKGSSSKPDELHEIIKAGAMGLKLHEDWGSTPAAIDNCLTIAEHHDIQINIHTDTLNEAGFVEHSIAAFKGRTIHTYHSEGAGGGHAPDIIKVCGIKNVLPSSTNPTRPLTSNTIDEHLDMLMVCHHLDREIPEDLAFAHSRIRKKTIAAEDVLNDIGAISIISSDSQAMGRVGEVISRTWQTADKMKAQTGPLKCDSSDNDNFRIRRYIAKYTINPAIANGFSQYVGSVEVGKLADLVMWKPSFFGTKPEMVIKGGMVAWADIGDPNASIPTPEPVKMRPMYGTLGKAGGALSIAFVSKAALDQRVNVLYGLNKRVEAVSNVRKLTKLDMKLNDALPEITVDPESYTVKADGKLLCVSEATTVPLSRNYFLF

[16] = system: MCF7; test: cells; details: Homo sapiens, MCF7, 72 h
Description: Antiproliferative activity against human MCF7 cells incubated for 72 hrs by MTT assay

[17] = system: HT-29; test: Potency index, ratio of cisplatin IC50 to compound IC50 for cytotoxicity against human HT-29 cells; assay type: functional
[18] = system: HT-29; test: Cytotoxicity against human HT-29 cells after 72 hrs by SRB assay; assay type: functional, cell-based; details: HT-29, 72 h
[19] = system: MCF7; test: Cytotoxicity against human MCF7 cells incubated up to 48 hrs by MTT assay; assay type: functional, cell-based; details: MCF7, 48 h
[20] = target: Hepatocyte growth factor receptor (Homo sapiens, UniProt P08581); test: Inhibition of cMET (unknown origin) using FAM-labeled peptide as substrate pre-incubated for 10 mins followed by substrate addition by mobility shift assay
[21] = system: A549; test: Potency index, ratio of foretinib IC50 to compound IC50 for antiproliferative activity against human A549 cells; assay type: functional
[22] = system: A549; test: Cytotoxicity against human A549 cells incubated for 72 hrs by MTT assay; assay type: functional, cell-based; details: A549, 72 h
[23] = system: HepG2; test: Cytotoxicity against human HepG2 cells incubated for 72 hrs by MTT assay; assay type: functional, cell-based; details: HepG2, 72 h
[24] = system: HepG2; test: Potency index, ratio of foretinib IC50 to compound IC50 for antiproliferative activity against human HepG2 cells; assay type: functional
[25] = system: MCF7; test: Potency index, ratio of foretinib IC50 to compound IC50 for antiproliferative activity against human MCF7 cells; assay type: functional
[26] = system: HeLa; test: Cytotoxicity against human HeLa cells incubated for 24 hrs by MTT assay; assay type: functional, cell-based
[27] = system: A549; test: Induction of cell cycle arrest in human A549 cells assessed as accumulation at subG1 phase by flow cytometry relative to control; assay type: functional
[28] = system: A549; test: Cytotoxicity against human A549 cells incubated for 24 hrs by MTT assay; assay type: functional, cell-based; details: A549, 24 h
[29] = system: HeLa; test: Induction of cell cycle arrest in human HeLa cells assessed as accumulation at subG1 phase by flow cytometry relative to control; assay type: functional
[30] = system: Pseudomonas aeruginosa; test: Antibacterial activity against Pseudomonas aeruginosa MTCC 424 after 24 hrs by serial dilution method; assay type: functional; details: MTCC 424, 24 h
[31] = system: Candida albicans; test: Antifungal activity against Candida albicans MTCC 183 after 24 hrs by serial dilution method; assay type: functional; details: MTCC 183, 24 h
[32] = system: Staphylococcus epidermidis; test: Antibacterial activity against Staphylococcus epidermidis MTCC 6880 incubated for 24 hrs by serial dilution method; assay type: functional; details: MTCC 6880, 24 h
[33] = system: Escherichia coli; test: Antibacterial activity against Escherichia coli MTCC 1652 after 24 hrs by serial dilution method; assay type: functional; details: MTCC 1652, 24 h
[34] = target: Alpha glucosidase (Homo sapiens, UniProt O43451+P10253+P14410+Q2M2H8); test: Inhibition of alpha-glucosidase (unknown origin) using p-nitrophenyl-alpha-D-glucopyranoside as substrate pre-incubated for 15 mins followed by substrate addition and measured for 20 mins by spectrophotometric analysis; assay type: protein assay
[35] = Inhibition of quorum sensing system in Pseudomonas aeruginosa MH602 PlasB::gfp-ASV at 250 uM measured every 30 minutes over 20 hrs by fluorescence analysis relative to control
[36] = target: Cholinesterase (Equus caballus, UniProt P81908); test: Inhibition of equine serum BuChE using butyrylthiocholine iodide as substrate preincubated for 3 mins followed by substrate addition by Ellman's method
Cholinesterase (Equus caballus, UniProt P81908), sequence (P81908 whole entry): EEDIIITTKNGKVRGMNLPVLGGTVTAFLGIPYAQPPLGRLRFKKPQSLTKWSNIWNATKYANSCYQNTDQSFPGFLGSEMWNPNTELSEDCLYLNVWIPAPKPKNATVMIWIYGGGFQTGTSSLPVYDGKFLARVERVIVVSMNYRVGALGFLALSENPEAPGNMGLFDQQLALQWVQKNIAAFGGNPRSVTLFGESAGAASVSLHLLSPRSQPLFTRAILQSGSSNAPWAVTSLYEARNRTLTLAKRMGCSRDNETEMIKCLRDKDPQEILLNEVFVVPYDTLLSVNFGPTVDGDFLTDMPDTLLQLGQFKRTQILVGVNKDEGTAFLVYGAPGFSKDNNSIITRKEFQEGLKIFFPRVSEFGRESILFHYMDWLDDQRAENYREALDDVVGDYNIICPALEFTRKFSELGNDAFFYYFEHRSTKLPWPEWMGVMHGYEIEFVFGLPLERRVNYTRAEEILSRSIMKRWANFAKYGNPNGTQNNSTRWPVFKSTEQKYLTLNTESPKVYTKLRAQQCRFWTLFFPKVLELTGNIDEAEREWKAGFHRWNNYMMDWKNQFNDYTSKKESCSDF

[37] = target: Acetylcholinesterase (Electrophorus electricus, UniProt O42275); test: Inhibition of electric eel AChE using acetylthiocholine iodide as substrate preincubated for 3 mins followed by substrate addition by Ellman's method
[38] = system: SNB-19; test: Cytotoxicity against human SNB19 cells after 72 hrs by WST-1 assay; assay type: functional, cell-based; details: SNB-19, 72 h
[39] = system: SNB-19; test: Potency index, ratio of cisplatin IC50 to compound IC50 for cytotoxicity against human SNB19 cells; assay type: functional
[40] = system: A549; test: Cytotoxicity against human A549 cells after 48 hrs by MTT assay; assay type: functional, cell-based; details: A549, 48 h
[41] = system: Bacillus subtilis; test: Antibacterial activity against Bacillus subtilis MTCC 441 after 24 hrs by serial dilution method; assay type: functional; details: MTCC 441, 24 h
[42] = system: Escherichia coli; test: Antimicrobial activity against Escherichia coli NCIM 5051 incubated for 36 hrs by agar well diffusion method; assay type: functional
[43] = system: Staphylococcus aureus; test: Antimicrobial activity against Staphylococcus aureus NCIM 5022 incubated for 36 hrs by agar well diffusion method; assay type: functional
[44] = target: Serine/threonine-protein kinase PLK1 (Homo sapiens, UniProt P53350); test: Inhibition of PLK1 PBD (unknown origin) using GPMQSpTPLNG-OH as fluorescent probe incubated for 30 mins by fluorescence polarization assay
Serine/threonine-protein kinase PLK1, sequence (P53350 whole entry): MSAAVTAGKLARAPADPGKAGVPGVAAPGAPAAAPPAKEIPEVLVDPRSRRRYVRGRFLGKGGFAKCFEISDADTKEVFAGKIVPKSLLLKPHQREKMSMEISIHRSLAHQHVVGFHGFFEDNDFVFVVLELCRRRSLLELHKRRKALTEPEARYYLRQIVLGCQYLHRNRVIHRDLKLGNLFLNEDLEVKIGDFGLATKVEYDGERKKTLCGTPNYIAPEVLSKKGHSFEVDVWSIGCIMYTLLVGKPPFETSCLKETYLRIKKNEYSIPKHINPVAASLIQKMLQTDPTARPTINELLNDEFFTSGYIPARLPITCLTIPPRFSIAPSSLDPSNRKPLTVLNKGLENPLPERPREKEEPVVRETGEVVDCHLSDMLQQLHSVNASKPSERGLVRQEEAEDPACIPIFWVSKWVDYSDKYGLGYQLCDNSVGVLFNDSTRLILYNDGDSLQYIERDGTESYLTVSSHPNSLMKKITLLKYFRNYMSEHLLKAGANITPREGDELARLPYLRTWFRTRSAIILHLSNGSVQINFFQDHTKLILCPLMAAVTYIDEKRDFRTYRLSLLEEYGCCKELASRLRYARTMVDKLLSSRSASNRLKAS

[45] = system: Leishmania major; test: Antileishmanial activity against Leishmania major 5-ASKH promastigotes incubated for 72 hrs by hemocytometer based cell counting method; assay type: functional, organism-based

NC(=O)c1cc(F)c(F)cc1-n1cc(COc2ccc(C(F)(F)F)cc2)nn1
IC50 [1]: 2.1 µM

COc1ccc(-n2nnc3c2CCC2(C=Cc4cc(C)ccc4O2)C3)cc1 (centres undefined)
MIC [2]: 4.34 µM (≈ 1.56 µg/mL)

Cn1c(=O)c2c3cc(F)ccc3c(=O)n(Cc3cn(Cc4ccccc4)nn3)c2n(C)c1=O
IC50 [3]: 6.02 µM

O=c1oc2ccccc2c2nn(Cc3cn(-c4c(Cl)cc(Cl)cc4Cl)nn3)cc12
inhibition [4]: 58% | IC50 [5]: 29 µM | IC50 [6]: 24 µM

O=c1c2ccccc2nc(SCc2cn(Cc3ccc(Br)cc3)nn2)n1CCc1ccccc1
Ki [7]: 117 µM

COc1ccc(-n2nnc3c2CCC2(C=Cc4cc(Cl)ccc4O2)C3)cc1 (centres undefined)
MIC [2]: 4.11 µM (≈ 1.56 µg/mL)

Cc1cc(O)c(C(=O)/C=C/c2ccc(OCc3cn(Cc4ccc(Br)cc4)nn3)cc2)c(=O)o1
MIC [8]: 3 µM (≈ 1.57 µg/mL)

CCc1ccc(-n2cc(CNC(=O)C(=O)c3cc4ccccc4[nH]3)nn2)cc1
IC50 [9]: 8.17 µM | IC50 [10]: 0.12 µM | IC50 [11]: 7.73 µM | Activity [12]: 76.9%

Cc1cc(O)cc2oc(=O)cc(CNCc3cn(-c4ccc(Br)cc4)nn3)c12
inhibition at 10 µM [13]: 62% | IC50 [14]: 8.01 µM

COc1ccc(NC(=O)NCc2cn(Cc3ccc(Cl)cc3Cl)nn2)cc1
IC50 [15]: 22.8 µM

O=C1CCC(N2C(=O)c3cccc(NC(=O)CCCCCCCn4cc(COc5c(O)cc(O)c6c(=O)cc(-c7ccccc7)oc56)nn4)c3C2=O)C(=O)N1 (centres undefined)
IC50 [16]: 17 µM

C=C[C@H]1CN2CC[C@H]1C[C@H]2[C@H](O)c1cc(-c2cn(-c3ccc(O)cc3)nn2)nc2ccc(OC)cc12
Ratio IC50 [17]: 8 | IC50 [18]: 1.21 µM

O=C1C(=O)N(CCn2cc(COCCOc3ccc(/C(=C(/CCCl)c4ccccc4)c4ccccc4)cc3)nn2)c2c(Br)cc(Br)cc21
IC50 [19]: 1.56 µM

O=C(Nc1ccc(Oc2ncnc3ccsc23)c(F)c1)c1nnn(-c2ccc(Cl)cc2)c1C(F)(F)F
IC50 [20]: 0.016 µM | Ratio IC50 [21]: 3.7 - 5.4 | IC50 [22]: 0.9 µM | IC50 [16]: 1.1 µM | IC50 [23]: 0.5 µM | Ratio IC50 [24]: 3.7 - 5.4 | Ratio IC50 [25]: 3.7 - 5.4

COc1cc(-c2cc(COc3ccccc3-c3nc4ccccc4o3)on2)ccc1OCc1cn(CC(=O)NCc2ccco2)nn1
IC50 [26]: 1.77 µM | Activity [27]: 49.43% | IC50 [28]: 2.59 µM | Activity [29]: 42.58%

O=C(Cn1cc(CSc2ccc(Cl)cc2)nn1)OCc1ccc(Cl)cc1
MIC [30]: 13.8 µM (≈ 5.63 µg/mL) | MIC [31]: 13.8 µM (≈ 5.63 µg/mL) | MIC [32]: 13.8 µM (≈ 5.63 µg/mL) | MIC [33]: 13.8 µM (≈ 5.63 µg/mL)

COc1ccc(-c2ccc(O[C@H](C)Cn3cc(-c4ccc(C(F)(F)F)cc4)nn3)c(OC)c2)cc1
IC50 [34]: 14.2 µM

CCc1ccc(-n2cc(CCC(=O)Nc3c(-c4ccccc4)[nH]c4ccccc34)nn2)cc1
inhibition [35]: 60.8%

Cc1ccc2c(c1)C=CC1(CCc3c(nnn3-c3ccccc3)C1)O2 (centres undefined)
MIC [2]: 4.74 µM (≈ 1.56 µg/mL)

O=C(CCCCC1CCSS1)NCc1cn(CCCCOc2ccc(-c3cc4c(ccc5ccccc54)oc3=O)cc2)nn1 (centres undefined)
IC50 [36]: 68.6 µM | IC50 [37]: 7.3 µM

C=C(C)[C@@H]1CC[C@]2(COC(=O)c3cn([C@H]4C[C@H](n5cc(C)c(=O)[nH]c5=O)O[C@@H]4CO)nn3)CC[C@]3(C)[C@H](CC[C@@H]4[C@@]5(C)CCC(=O)C(C)(C)[C@@H]5CC[C@]43C)[C@@H]12
IC50 [38]: 0.17 µM | Ratio IC50 [39]: 5

COc1cc(Cn2cc(C(=O)c3c(-c4ccccc4)nc4ccccn34)nn2)cc(OC)c1OC
IC50 [40]: 0.51 µM | IC50 [9]: 1.04 µM

O=C(Cn1cc(CSc2ccc(Br)cc2)nn1)OCc1ccc(Cl)cc1
MIC [30]: 15.3 µM (≈ 6.93 µg/mL) | MIC [31]: 15.3 µM (≈ 6.93 µg/mL) | MIC [41]: 15.3 µM (≈ 6.93 µg/mL) | MIC [32]: 15.3 µM (≈ 6.93 µg/mL) | MIC [33]: 15.3 µM (≈ 6.93 µg/mL)

Clc1ccc(Cn2nncc2CN2CCN(C(c3ccccc3)c3ccccc3)CC2)c(Cl)c1
diameter of the inhibition zone (DIZ) [42]: 16.15 mm | diameter of the inhibition zone (DIZ) [43]: 16.45 mm

COc1c(O)cc(O)c2c(=O)cc(-c3ccccc3)oc12 [WOGONIN]
IC50 [16]: 30 µM

Fc1cccc(Cl)c1Cn1nncc1CN1CCN(C(c2ccccc2)c2ccccc2)CC1
diameter of the inhibition zone (DIZ) [42]: 15.63 mm | diameter of the inhibition zone (DIZ) [43]: 16.33 mm

O=c1oc2ccccc2c2c1cnn2Cc1cn(-c2c(Cl)cc(Cl)cc2Cl)nn1
inhibition [4]: 72% | IC50 [5]: 18 µM | IC50 [6]: 21 µM

O=C(CCNC(=O)c1ccc(CO)cc1)N[C@@H](Cc1cnnn1CCCCCCCCc1ccccc1)C(=O)NCc1cnnn1CCP(=O)(O)O
IC50 [44]: 3.37 µM

COC(=O)[C@H](CC(C)C)NC(=O)c1cn(-c2ccccc2N)nn1
IC50 [45]: 11 µg/mL (≈ 33.2 µM)
